Measured values taken from ChEMBL document CHEMBL3621105, “Synthesis and evaluation of a bis-3-chloropiperidine derivative incorporating an anthraquinone pharmacophore” (Bioorg Med Chem Lett, 2015).
Calls of active or inactive are those of the source. The calls are words filed in the database; no cut-off is given here.

Legend:
[1] = system: Escherichia coli; assay: Induction of Escherichia coli supercoiled pBR322 DNA cleavage at 50 uM after 24 hrs at 25 degC by agarose gel electrophoresis
[2] = Induction of alkylation of 5'-FAM-labelled scrambled duplex oligonucleotide DNA (unknown origin) at guanine residues G1 to G4 at 50 uM after 24 hrs by sequencing gel analysis
[3] = Induction of alkylation of 5'-FAM-labelled scrambled duplex oligonucleotide DNA (unknown origin) at guanine residues G1 to G4 after 24 hrs by sequencing gel analysis
[4] = system: Escherichia coli; assay: Induction of Escherichia coli supercoiled pBR322 DNA cleavage assessed as formation of linear form of DNA at 0.5 to 50 uM after 24 hrs at 25 degC by agarose gel electrophoresis
[5] = system: Escherichia coli; assay: Induction of Escherichia coli supercoiled pBR322 DNA cleavage assessed as formation of open circular form of DNA after 24 hrs at 25 degC by agarose gel electrophoresis
[6] = Induction of alkylation of 5'-FAM-labelled scrambled duplex oligonucleotide DNA (unknown origin) at guanine residues G1 to G4 at 5 to 50 uM after 24 hrs by sequencing gel analysis

**Q.** Which Activity [1] does the source give for O=C(O)CCCc1ccc(N(CCCl)CCCl)cc1 here?
**A.** Its Activity is “inactive”.

**Q.** And the Activity [2]?
**A.** Its Activity is “inactive”.

**Q.** Which Activity [3] does the source give for CC1(C)CC(Cl)CN(CCCC[C@@H](C(=O)Oc2cccc3ccccc23)N2CC(Cl)CC(C)(C)C2)C1 (some centres not stated) here?
**A.** The Activity was “Dose-dependent effect”.

**Q.** Which Activity [4] does the source give for CC1(C)CC(Cl)CN(CCCC[C@@H](C(=O)OCc2ccc3c(c2)C(=O)c2ccccc2C3=O)N2CC(Cl)CC(C)(C)C2)C1 (some centres not stated) here?
**A.** The Activity was “inactive”.

**Q.** What about the Activity [5] of the same molecule?
**A.** Its Activity is “Dose-dependent effect”.

**Q.** What about the Activity [6] of the same molecule?
**A.** The Activity was “Active”.

**Q.** Which Activity [3] does the source give for COc1ccc(OC(=O)[C@H](CCCCN2CC(Cl)CC(C)(C)C2)N2CC(Cl)CC(C)(C)C2)c2ccccc12 (some centres not stated) here?
**A.** Its Activity is “Dose-dependent effect”.
